# Patent US12532889B2, “Herbicidal compositions comprising glufosinate” (BASF SE, priority 2023, dated 2026)
# Values joined by “and” are separate entries in the source; they are usually repeats but may differ in a detail not shown here. Equal values may be shown once.
# Assays:
# Experiment in all cases: Post-emergence application in field trials (Example A)
# Format in all cases: in vivo
# [1] = system: ECHCG (Echinocloa crus-galli)
# Method: (§1) In the examples below, using the method of S. R. Colby (1967) “Calculating synergistic and antagonistic responses of herbicide combinations”, Weeds 15, p. 22ff., the value E, which is expected if the activity of the individual active compounds is only additive, was calculated:
# (§2) [formula] • where • X=percent activity using active herbicide A at an application rate a; • Y=percent activity using active herbicide B (e.g. glufosinate) at an application rate b; • E=expected activity (in %) by A+B at application rates a+b.
# (§3) If the value found experimentally is higher than the value E calculated according to Colby, a synergistic effect is present.
# (§4) On field test sites, natural weed infestation or seeded weeds were treated post-emergence of the weeds.
# (§5) In the field trials, the weeds were treated as indicated below.
# (§6) In the following experiments, the herbicidal activity for the individual herbicidal compositions (solo and mixture applications) was assessed at the indicated days after treatment (DAT). The assessments for the damage on undesired weeds caused by the composition was carried out using a scale from 0 to 100%, compared to the untreated control plants. Here, 0 means no damage and 100 means complete destruction of the plants.
# [2] = system: HORVW (Hordeum vulgare (winter barley))
# Method: as §1, §2, §3, §4, §5, §6
# [3] = system: LOLMU (Lolium multiflorum); conditions: for % Herbicidal activity: B-6 252 g ai/ha, growth stage 22-25, height 20-25 cm; for % herbicidal activity: Table 6.1, LOLMU growth stage 22-25, height 20-25 cm, 200 l/ha water
# Method: as §1, §2, §3, §4, §5, §6
# [4] = system: ZEAMX (Zea mays)
# Method: as §1, §2, §3, §4, §5, §6
# [5] = system: DIGSA (Digitaria sanguinalis); conditions: for % Herbicidal activity: growth stage 22
# Method: as §1, §2, §3, §4, §5, §6
# [6] = 21 DAT, B-6 150 g ai/ha, growth stage 23-30, height 15-20 cm
# [7] = 21 DAT, B-6 252 g ai/ha, growth stage 23-30, height 15-20 cm
# [8] = 21 DAT, B-6 252 g ai/ha, growth stage 23-29, height 20-25 cm
# [9] = 42 DAT, B-6 252 g ai/ha, growth stage 15-16, height 27-33 cm
compound,measurement,setting,value
"CP(=O)(O)CC[C@H](N)C(=O)O.N [B-6, glufosinate-P-ammonium]",% Herbicidal activity,"[1]; 7 DAT, B-6 252 g ai/ha, growth stage 23-30, height 15-20 cm",60%
same,% Herbicidal activity,[1]; [6],40%
same,% herbicidal activity,[1]; [6],40%
same,% Herbicidal activity,[1]; [7],70%
same,% herbicidal activity,[1]; [7],70%
same,% Herbicidal activity,"[1]; 28 DAT, B-6 252 g ai/ha, growth stage 23-30, height 15-20 cm",70% and 60%
same,% herbicidal activity,"[1]; Table 6.1, ECHCG growth stage 23-30, height 15-20 cm, A-1 12.5, B-6 150 g ai/ha, 7 DAT, 200 l/ha water",50%
same,% herbicidal activity,"[1]; Table 6.1, ECHCG growth stage 23-30, height 15-20 cm, A-1 12.5, B-6 252 g ai/ha, 7 DAT, 200 l/ha water",60%
same,% herbicidal activity,"[1]; Table 6.1, ECHCG growth stage 23-30, height 15-20 cm, A-1 18, B-6 150 g ai/ha, 7 DAT, 200 l/ha water",50%
same,% herbicidal activity,"[1]; Table 6.1, ECHCG growth stage 23-30, height 15-20 cm, A-1 18, B-6 252 g ai/ha, 7 DAT, 200 l/ha water",60%
same,% Herbicidal activity,"[2]; 7 DAT, B-6 150 g ai/ha, growth stage 23-29, height 20-25 cm",0%
same,% Herbicidal activity,"[2]; 7 DAT, B-6 252 g ai/ha, growth stage 23-29, height 20-25 cm",50% and 30%
same,% Herbicidal activity,"[2]; 21 DAT, B-6 150 g ai/ha, growth stage 23-29, height 20-25 cm",0%
same,% Herbicidal activity,[2]; [8],70%
same,% herbicidal activity,[2]; [8],30% and 40%
same,% herbicidal activity,"[2]; Table 6.1, HORVW growth stage 23-29, height 20-25 cm, A-1 12.5, B-6 150 g ai/ha, 7 DAT, 200 l/ha water",0%
same,% herbicidal activity,"[2]; Table 6.1, HORVW growth stage 23-29, height 20-25 cm, A-1 12.5, B-6 252 g ai/ha, 7 DAT, 200 l/ha water",50%
same,% herbicidal activity,"[2]; Table 6.1, HORVW growth stage 23-29, height 20-25 cm, A-1 18, B-6 150 g ai/ha, 7 DAT, 200 l/ha water",0%
same,% herbicidal activity,"[2]; Table 6.1, HORVW growth stage 23-29, height 20-25 cm, A-1 18, B-6 252 g ai/ha, 7 DAT, 200 l/ha water",40%
same,% Herbicidal activity,[3]; 7 DAT,60%
same,% Herbicidal activity,[3]; 28 DAT,40%
same,% herbicidal activity,"[3]; A-1 12.5, B-6 252 g ai/ha, 7 DAT",60%
same,% herbicidal activity,"[3]; A-1 18, B-6 252 g ai/ha, 7 DAT",60%
same,% Herbicidal activity,"[4]; 21 DAT, B-6 252 g ai/ha, growth stage 15-16, height 27-33 cm",65%
same,% herbicidal activity,"[4]; 21 DAT, B-6 252 g ai/ha, growth stage 15-16, height 50-60 cm",30%
same,% Herbicidal activity,"[4]; 28 DAT, B-6 252 g ai/ha, growth stage 15-16, height 50-60 cm",75%
same,% Herbicidal activity,[4]; [9],45% and 50%
same,% herbicidal activity,[4]; [9],45%
same,% herbicidal activity,"[4]; Table 6.1, ZEAMX growth stage 15-16, height 50-60 cm, A-1 18, B-6 252 g ai/ha, 7 DAT, 200 l/ha water",65%
same,% Herbicidal activity,"[5]; 7 DAT, B-6 252 g ai/ha, height 10-15 cm",75%
same,% herbicidal activity,"[5]; 21 DAT, B-6 252 g ai/ha, growth stage 21-22, height 10-15 cm",20%
same,% Herbicidal activity,"[5]; 21 DAT, B-6 252 g ai/ha, height 10-15 cm",80%
same,% Herbicidal activity,"[5]; 42 DAT, B-6 252 g ai/ha, height 10-15 cm",50%
same,% herbicidal activity,"[5]; Table 6.1, DIGSA growth stage 21-22, height 10-15 cm, A-1 18, B-6 252 g ai/ha, 7 DAT, 200 l/ha water",30%
